Patent US12180187B2, “1-phenyl-5-azinylpyrazolyl-3-oxyalkyl acids and their use for controlling unwanted plant growth” (BAYER AKTIENGESELLSCHAFT, priority 2019, dated 2024)

Tests used:
[1] = system: DIGSA; assay: Pre-emergence action at 320 g/ha against DIGSA; format: in vivo, Digitaria sanguinalis; details: visual scoring after about 3 weeks vs untreated controls
How it was run: (§1)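 Visual scoring in percent against untreated controls, about 3 weeks after treatment, where 100% means dead plants and 0% means no difference. Compounds were applied as aqueous suspension or emulsion (WP or EC, plus 0.5% additive) onto soil covering freshly sown seeds, at 600 l/ha water.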

[2] = system: ECHCG; assay: Post-emergence action at 320 g/ha against ECHCG; format: in vivo, Echinochloa crus-galli; details: dosage 320 g/ha, visual rating about 3 weeks after treatment vs untreated controls (100% = plants died)
Text: (§2) Accordingly, the compounds of the invention have good herbicidal action against a broad spectrum of weed grasses and broad-leaved weeds and are therefore suitable for controlling unwanted vegetation by the post-emergence method. • b) Seeds of monocotyledonous and dicotyledonous weeds and crop plants are placed in sandy loam in plastic or organic planting pots, covered with soil and cultivated in a greenhouse under controlled growth conditions. 2 to 3 weeks after sowing, the test plants are treated at the one-leaf stage. The compounds of the invention, formulated in the form of wettable powders (WP) or as emulsion concentrates (EC), are then sprayed onto the green parts of the plants as aqueous suspension or emulsion with addition of 0.5% additive at a water application rate of 600 l/ha (converted). After the test plants have been kept in the greenhouse under optimum growth conditions for about 3 weeks, the activity of the preparations is rated visually in comparison to untreated controls. For example, 100% activity=the plants have died, 0% activity=like control plants. Tables 39 to 49 below show the effects of selected compounds of the general formula (I) according to Tables 1 and 2 on various harmful plants and at an application rate corresponding to 320 g/ha, which were obtained by the experimental procedure mentioned above.

[3] = system: ALOMY; assay: Pre-emergence action at 320 g/ha against ALOMY; format: in vivo, Alopecurus myosuroides; details: scored visually after about 3 weeks vs untreated controls (100% = plants have died)
How it was run: as §1

[4] = system: POLCO; assay: Post-emergence action at 320 g/ha against POLCO; format: in vivo, Fallopia convolvulus (Polygonum convolvulus); details: visual rating about 3 weeks after treatment vs untreated controls
Text: as §2

[5] = system: VIOTR; assay: Post-emergence action at 320 g/ha against VIOTR; format: in vivo, Viola tricolor; details: visual rating about 3 weeks after treatment vs untreated controls
Text: as §2

[6] = system: AVEFA; assay: Post-emergence action at 320 g/ha against AVEFA; format: in vivo; details: visual rating about 3 weeks after treatment vs untreated controls
Text: as §2

[7] = system: ALOMY; assay: Post-emergence action against ALOMY, 320 g/ha; format: in vivo, Alopecurus myosuroides; details: dosage 320 g/ha, visual rating about 3 weeks after treatment vs untreated controls (100% = plants died)
How it was run: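 Activity is a visual rating against untreated controls, with 0% like control and 100% dead plants, made about 3 weeks after treatment. Plants grown in sandy loam in the greenhouse received a post-emergence spray at the one-leaf stage of 320 g/ha, formulated as WP or EC with 0.5% additive in 600 l/ha water.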

[8] = system: AVEFA; assay: Pre-emergence action at 320 g/ha against AVEFA; format: in vivo; details: visual scoring after about 3 weeks vs untreated controls
How it was run: as §1

[9] = system: VERPE; assay: Pre-emergence action at 320 g/ha against VERPE; format: in vivo, Veronica persica; details: visual scoring after about 3 weeks vs untreated controls
How it was run: as §1

[10] = system: ECHGC; assay: Pre-emergence action at 320 g/ha against ECHGC; format: in vivo, Echinochloa crus-galli; details: visual scoring after about 3 weeks vs untreated controls
How it was run: as §1

[11] = system: LOLRI; assay: Pre-emergence action at 320 g/ha against LOLRI; format: in vivo, Lolium rigidum; details: visual scoring after about 3 weeks vs untreated controls
How it was run: as §1

[12] = system: AMARE; assay: Post-emergence action at 320 g/ha against AMARE; format: in vivo, Amaranthus retroflexus; details: visual rating about 3 weeks after treatment vs untreated controls
Text: as §2

[13] = system: POLCO; assay: Pre-emergence action at 320 g/ha against POLCO; format: in vivo, Fallopia convolvulus (Polygonum convolvulus); details: visual scoring after about 3 weeks vs untreated controls
How it was run: as §1

[14] = system: PHBPU; assay: Post-emergence action at 320 g/ha against PHBPU; format: in vivo; details: visual rating about 3 weeks after treatment vs untreated controls
Text: as §2

[15] = system: DIGSA; assay: Post-emergence action at 320 g/ha against DIGSA; format: in vivo, Digitaria sanguinalis; details: dosage 320 g/ha, visual rating about 3 weeks after treatment vs untreated controls (100% = plants died)
Text: as §2

[16] = system: SETVI; assay: Post-emergence action at 320 g/ha against SETVI; format: in vivo, Setaria viridis; details: visual rating about 3 weeks after treatment vs untreated controls
Text: as §2

[17] = system: ABUTH; assay: Post-emergence action at 320 g/ha against ABUTH; format: in vivo, Abutilon theophrasti; details: visual rating about 3 weeks after treatment vs untreated controls
Text: as §2

[18] = system: AMARE; assay: Pre-emergence action at 320 g/ha against AMARE; format: in vivo, Amaranthus retroflexus; details: visual scoring after about 3 weeks vs untreated controls
How it was run: as §1

[19] = system: SETVI; assay: Pre-emergence action at 320 g/ha against SETVI; format: in vivo, Setaria viridis; details: visual scoring after about 3 weeks vs untreated controls
How it was run: as §1

[20] = system: VIOTR; assay: Pre-emergence action at 320 g/ha against VIOTR; format: in vivo, Viola tricolor; details: dosage 320 g/ha
How it was run: as §1

[21] = system: ABUTH; assay: Pre-emergence action at 320 g/ha against ABUTH; format: in vivo, Abutilon theophrasti; details: greenhouse, scored visually after about 3 weeks vs untreated controls, 100% = plants have died, 0% = like control plants
Text: b) Seeds of monocotyledonous and dicotyledonous weed plants and crop plants are placed in plastic or organic planting pots and covered with soil. The compounds of the invention, formulated in the form of wettable powders (WP) or as emulsion concentrates (EC), are then applied onto the surface of the covering soil as aqueous suspension or emulsion with addition of 0.5% additive at a water application rate of 600 l/ha (converted). After the treatment, the pots are placed in a greenhouse and kept under good growth conditions for the trial plants. After about 3 weeks, the effect of the preparations is scored visually in comparison with untreated controls as percentages. For example, 100% activity=the plants have died, 0% activity=like control plants. Tables 13 to 26 below show the effects of selected compounds of the general formula (I) on various harmful plants and at an application rate corresponding to 320 g/ha, which were obtained by the experimental procedure mentioned above.

[22] = system: MATIN; assay: Pre-emergence action at 320 g/ha against MATIN; format: in vivo, Tripleurospermum inodorum (Matricaria inodora); details: visual scoring after about 3 weeks vs untreated controls
How it was run: as §1

## CCOC(=O)COc1nn(-c2ccccc2F)c(-c2ccc(F)nc2)c1F [VII-034]
[1]
  Pre-emergence action against DIGSA in %: 100%
[2]
  Post-emergence action at 320 g/ha against ECHCG in %: 90%
[3]
  Pre-emergence action at 320 g/ha against ALOMY in %: 90%
[4]
  Post-emergence action against POLCO in %: 80%
[5]
  Post-emergence action against VIOTR in %: 80%
[6]
  Post-emergence action against AVEFA in %: 90%
[7]
  Post-emergence action against ALOMY: 90%
[8]
  Pre-emergence action against AVEFA in %: 90%
[9]
  Pre-emergence action against VERPE in %: 80%
[10]
  Pre-emergence action against ECHGC in %: 90%
[11]
  Pre-emergence action against LOLRI in %: 90%
[12]
  Post-emergence action against AMARE in %: 80%
[13]
  Pre-emergence action against POLCO in %: 90%
[14]
  Post-emergence action against PHBPU in %: 90%
[15]
  Post-emergence action at 320 g/ha against DIGSA in %: 90%
[16]
  Post-emergence action against SETVI in %: 90%
[17]
  Post-emergence action against ABUTH in %: 80%
[18]
  Pre-emergence action against AMARE in %: 100%
[19]
  Pre-emergence action against SETVI in %: 100%
[20]
  Pre-emergence action against VIOTR in %: 100%

## CCOC(=O)[C@@H](C)Oc1nn(-c2ccccc2F)c(-c2cncc(F)c2)c1Br [VII-130]
[1]
  Pre-emergence action against DIGSA in %: 100%
[3]
  Pre-emergence action at 320 g/ha against ALOMY in %: 100%
[8]
  Pre-emergence action against AVEFA in %: 90%
[9]
  Pre-emergence action against VERPE in %: 100%
[10]
  Pre-emergence action against ECHGC in %: 90%
[11]
  Pre-emergence action against LOLRI in %: 100%
[21]
  Pre-emergence action at 320 g/ha against ABUTH in %: 90%
[13]
  Pre-emergence action against POLCO in %: 100%
[18]
  Pre-emergence action against AMARE in %: 100%
[22]
  Pre-emergence action against MATIN in %: 100%
[19]
  Pre-emergence action against SETVI in %: 100%
[20]
  Pre-emergence action against VIOTR in %: 100%

## C[C@@H](Oc1nn(-c2cc(F)ccc2F)c(-c2cncc(F)c2)c1Br)C(=O)O [VII-137]
[3]
  Pre-emergence action at 320 g/ha against ALOMY in %: 100%
[8]
  Pre-emergence action against AVEFA in %: 90%
[9]
  Pre-emergence action against VERPE in %: 100%
[10]
  Pre-emergence action against ECHGC in %: 90%
[11]
  Pre-emergence action against LOLRI in %: 100%
[21]
  Pre-emergence action at 320 g/ha against ABUTH in %: 90%
[13]
  Pre-emergence action against POLCO in %: 90%
[18]
  Pre-emergence action against AMARE in %: 100%
[22]
  Pre-emergence action against MATIN in %: 90%
[19]
  Pre-emergence action against SETVI in %: 100%
[20]
  Pre-emergence action against VIOTR in %: 100%
